Assay [1] addresses Epidermal growth factor receptor (Homo sapiens, UniProt P00533). Nature of the assay: Inhibition of Epidermal growth factor receptor.
Assay [2] has as its target Tyrosine-protein kinase Lck (Homo sapiens, UniProt P06239). Nature of the assay: Inhibition of p56 lck tyrosine kinase.

This note sets out measurements from ChEMBL document CHEMBL1153680, “Structural influences of styryl-based inhibitors on epidermal growth factor receptor and p56lck tyrosine-specific protein kinases” (Bioorg Med Chem Lett, 1991).

Usually IC50 stands for the concentration that inhibits the measured activity by half.

Sequence of Epidermal growth factor receptor (P00533 whole entry): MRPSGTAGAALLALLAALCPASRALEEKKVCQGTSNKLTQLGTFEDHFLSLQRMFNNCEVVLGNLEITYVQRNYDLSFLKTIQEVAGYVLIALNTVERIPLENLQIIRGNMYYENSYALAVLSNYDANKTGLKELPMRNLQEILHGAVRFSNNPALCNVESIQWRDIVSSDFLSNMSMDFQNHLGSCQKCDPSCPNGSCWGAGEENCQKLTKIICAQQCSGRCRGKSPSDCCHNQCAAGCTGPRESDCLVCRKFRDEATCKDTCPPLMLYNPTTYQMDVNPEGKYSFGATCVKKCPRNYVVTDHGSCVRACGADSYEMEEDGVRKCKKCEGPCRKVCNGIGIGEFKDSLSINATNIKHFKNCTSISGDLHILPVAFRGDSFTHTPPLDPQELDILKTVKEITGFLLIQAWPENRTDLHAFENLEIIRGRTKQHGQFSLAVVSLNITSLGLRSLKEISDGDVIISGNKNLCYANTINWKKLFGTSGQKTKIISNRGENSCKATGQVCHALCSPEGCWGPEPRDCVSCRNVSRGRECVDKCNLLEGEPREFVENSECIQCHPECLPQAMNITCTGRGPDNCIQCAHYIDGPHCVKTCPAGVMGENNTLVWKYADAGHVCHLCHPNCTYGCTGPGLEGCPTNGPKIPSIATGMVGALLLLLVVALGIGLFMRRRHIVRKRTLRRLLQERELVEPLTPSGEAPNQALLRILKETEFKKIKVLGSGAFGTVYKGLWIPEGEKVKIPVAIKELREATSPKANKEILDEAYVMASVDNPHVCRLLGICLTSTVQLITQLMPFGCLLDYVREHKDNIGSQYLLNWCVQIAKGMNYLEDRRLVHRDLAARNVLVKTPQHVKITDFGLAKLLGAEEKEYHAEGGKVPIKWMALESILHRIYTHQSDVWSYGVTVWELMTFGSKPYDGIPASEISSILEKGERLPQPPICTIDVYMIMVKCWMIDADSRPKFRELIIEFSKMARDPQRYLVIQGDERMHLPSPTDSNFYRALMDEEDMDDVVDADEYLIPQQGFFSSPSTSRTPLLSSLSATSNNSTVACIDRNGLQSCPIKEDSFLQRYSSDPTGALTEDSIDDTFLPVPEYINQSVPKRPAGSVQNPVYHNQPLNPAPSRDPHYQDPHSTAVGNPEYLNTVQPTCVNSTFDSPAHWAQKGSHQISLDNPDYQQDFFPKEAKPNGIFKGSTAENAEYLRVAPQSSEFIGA
Sequence of Tyrosine-protein kinase Lck (P06239 whole entry): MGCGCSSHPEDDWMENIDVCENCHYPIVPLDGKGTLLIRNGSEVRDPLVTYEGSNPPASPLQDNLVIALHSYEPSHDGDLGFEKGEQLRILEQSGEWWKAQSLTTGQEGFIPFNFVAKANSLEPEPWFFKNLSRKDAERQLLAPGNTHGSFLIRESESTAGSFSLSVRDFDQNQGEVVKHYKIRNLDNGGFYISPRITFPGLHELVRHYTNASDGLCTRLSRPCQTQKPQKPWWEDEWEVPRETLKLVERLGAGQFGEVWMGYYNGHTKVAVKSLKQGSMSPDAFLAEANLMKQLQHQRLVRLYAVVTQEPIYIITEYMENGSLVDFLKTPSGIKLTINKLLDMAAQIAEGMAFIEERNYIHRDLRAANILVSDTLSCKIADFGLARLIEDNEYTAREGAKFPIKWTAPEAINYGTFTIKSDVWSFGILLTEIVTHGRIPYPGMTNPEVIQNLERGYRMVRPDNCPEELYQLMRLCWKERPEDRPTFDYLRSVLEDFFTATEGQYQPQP

As for `N#C/C(=C\c1ccc(O)c(O)c1)C(N)=O`, the IC50 in assay [1] worked out at 4 µM; in assay [2], 7 µM. Take `N#C/C(=C\c1cc(O)ccc1O)C(N)=O`: the IC50 in assay [1] was found to be 10 µM; in assay [2], 100 µM. As for `O=CN/C=C/c1ccc(O)c(O)c1`, the midpoint of inhibition in assay [1], the IC50, lay at 7 µM. In other words, the single-digit micromolar range. `O=CN/C=C/c1cc(O)ccc1O` [ERBSTATIN] had an IC50 in assay [1] of 3 µM.
